The record followed here is PubChem BioAssay AID180 (DTP/NCI, 2004).

Where “and” joins values, the source holds several entries; their conditions need not be identical. Identical values can stand only once.

In the test the test system is BDF1 mice, Adenocarcinoma 755 s.c., tumor weight T/C. Kind of test: NCI In Vivo Anticancer Drug Screen. Data for tumor model Adenocarcinoma 755 (subcutaneous) in B6D2F1 (BDF1) mice. Conditions: endpoint: mean tumor weight, higher = larger tumour. In short, it runs like this: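 Tumor-bearing mice receive test compound while controls get vehicle alone. Antitumor effect is scored from survival or tumor dimensions as a T/C quotient.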

Setting [1] is: dose: 30.0 mg/kg/injection, schedule: Q01DX011 (ip), vehicle: carboxymethylcellulose (CMC).
[2] abbreviates: dose: 60.0 mg/kg/injection, schedule: Q01DX011 (ip), vehicle: carboxymethylcellulose (CMC).
The mark [3] stands for this setting: dose: 120.0 mg/kg/injection, schedule: Q01DX011 (ip), vehicle: carboxymethylcellulose (CMC).
Where [4] appears, read: dose: 8.0 mg/kg/injection, schedule: Q01DX011 (ip), vehicle: carboxymethylcellulose (CMC).

Broadly, the T/C is the ratio of treated to control. As to `S=P(N1CC1)(N1CC1)N1CC1`, the T/C reads like this: (dose: 0.3 mg/kg/injection, schedule: Q01DX011 (ip), vehicle: carboxymethylcellulose (CMC)) 60 % of control; (dose: 0.48 mg/kg/injection, schedule: Q01DX011 (ip), vehicle: carboxymethylcellulose (CMC)) 45 % of control; (dose: 0.58 mg/kg/injection, schedule: Q01DX011 (ip), vehicle: carboxymethylcellulose (CMC)) 91 % of control; (dose: 0.6 mg/kg/injection, schedule: Q01DX011 (ip), vehicle: carboxymethylcellulose (CMC)) 53 % of control and 62 % of control (2×); (dose: 0.65 mg/kg/injection, schedule: Q01DX011 (ip), vehicle: carboxymethylcellulose (CMC)) 90 % of control; (dose: 0.75 mg/kg/injection, schedule: Q01DX011 (ip), vehicle: methylcellulose (MC)) 62 % of control. Moreover, the T/C by setting is: (dose: 0.8 mg/kg/injection, schedule: Q01DX011 (ip), vehicle: carboxymethylcellulose (CMC)) 53 % of control and 77 % of control; (dose: 1.3 mg/kg/injection, schedule: Q01DX011 (ip), vehicle: carboxymethylcellulose (CMC)) 54 % of control; (dose: 1.45 mg/kg/injection, schedule: Q01DX011 (ip), vehicle: carboxymethylcellulose (CMC)) 89 % of control and 99 % of control; (dose: 1.5 mg/kg/injection, schedule: Q01DX011 (ip), vehicle: methylcellulose (MC)) 37 % of control; (dose: 2.4 mg/kg/injection, schedule: Q01DX011 (ip), vehicle: carboxymethylcellulose (CMC)) 14 % of control and 29 % of control and 38 % of control; (dose: 2.6 mg/kg/injection, schedule: Q01DX011 (ip), vehicle: carboxymethylcellulose (CMC)) 35 % of control. The T/C (dose: 2.9 mg/kg/injection, schedule: Q01DX011 (ip), vehicle: carboxymethylcellulose (CMC)) is 28 % of control and 52 % of control; the T/C (dose: 3.0 mg/kg/injection, schedule: Q01DX011 (ip), vehicle: methylcellulose (MC)) was 14 % of control; the T/C (dose: 5.2 mg/kg/injection, schedule: Q01DX011 (ip), vehicle: carboxymethylcellulose (CMC)) was 7 % of control and 9 % of control; the T/C (dose: 6.0 mg/kg/injection, schedule: Q01DX011 (ip), vehicle: methylcellulose (MC)) is 6 % of control; the T/C (dose: 725.0 micrograms/kg/injection, schedule: Q01DX011 (ip), vehicle: carboxymethylcellulose (CMC)) was 83 % of control; the T/C (dose: 1450.0 micrograms/kg/injection, schedule: Q01DX011 (ip), vehicle: carboxymethylcellulose (CMC)) is 30 % of control. In addition, the T/C (dose: 2900.0 micrograms/kg/injection, schedule: Q01DX011 (ip), vehicle: carboxymethylcellulose (CMC)) was 36 % of control and the T/C (dose: 5800.0 micrograms/kg/injection, schedule: Q01DX011 (ip), vehicle: carboxymethylcellulose (CMC)) was 26 % of control.

With `Cc1ccc(Nc2nc(N)nc(C)c2Br)cc1`, the T/C (dose: 15.0 mg/kg/injection, schedule: Q01DX011 (ip), vehicle: methylcellulose (MC)) was 98 % of control; the T/C (dose: 31.0 mg/kg/injection, schedule: Q01DX011 (ip), vehicle: methylcellulose (MC)) was 95 % of control; the T/C (dose: 62.0 mg/kg/injection, schedule: Q01DX011 (ip), vehicle: methylcellulose (MC)) was 82 % of control; the T/C (dose: 125.0 mg/kg/injection, schedule: Q01DX011 (ip), vehicle: methylcellulose (MC)) is 70 % of control; the T/C (dose: 250.0 mg/kg/injection, schedule: Q01DX011 (ip), vehicle: methylcellulose (MC)) was 83 % of control.

On to `Cn1c(N)nc2c(ncn2C2CC(O)C(CO)O2)c1=O` (stereo not drawn), for which the T/C by setting is: under setting [1], 109 % of control; under setting [2], 82 % of control; under setting [3], 89 % of control.

Regarding `Clc1ccc(N2CCN(CCCN3CCN(c4cccc(Cl)c4)CC3)CC2)cc1`, the T/C is, setting by setting: (dose: 5.0 mg/kg/injection, schedule: Q01DX011 (ip), vehicle: methylcellulose (MC)) 71 % of control; under setting [4], 83 % of control; (dose: 10.0 mg/kg/injection, schedule: Q01DX011 (ip), vehicle: methylcellulose (MC)) 62 % of control and 72 % of control; (dose: 12.0 mg/kg/injection, schedule: Q01DX011 (ip), vehicle: carboxymethylcellulose (CMC)) 103 % of control; (dose: 18.0 mg/kg/injection, schedule: Q01DX011 (ip), vehicle: carboxymethylcellulose (CMC)) 40 % of control; (dose: 20.0 mg/kg/injection, schedule: Q01DX011 (ip), vehicle: methylcellulose (MC)) 65 % of control. Further, the T/C (dose: 27.0 mg/kg/injection, schedule: Q01DX011 (ip), vehicle: carboxymethylcellulose (CMC)) is 46 % of control; the T/C under setting [1] is 47 % of control; the T/C (dose: 40.0 mg/kg/injection, schedule: Q01DX011 (ip), vehicle: methylcellulose (MC)) is 25 % of control; the T/C under setting [2] was 26 % of control.

Turning to `C1OC1C1CO1` (stereo not drawn), the T/C (dose: 3.05 mg/kg/injection, schedule: Q01DX011 (ip), vehicle: carboxymethylcellulose (CMC)) is 83 % of control; the T/C (dose: 3.5 mg/kg/injection, schedule: Q01DX011 (ip), vehicle: carboxymethylcellulose (CMC)) is 77 % of control; the T/C (dose: 7.0 mg/kg/injection, schedule: Q01DX011 (ip), vehicle: carboxymethylcellulose (CMC)) was 72 % of control; the T/C (dose: 8.13 mg/kg/injection, schedule: Q01DX011 (ip), vehicle: carboxymethylcellulose (CMC)) is 62 % of control and 68 % of control; the T/C (dose: 14.0 mg/kg/injection, schedule: Q01DX011 (ip), vehicle: carboxymethylcellulose (CMC)) is 110 % of control; the T/C (dose: 24.4 mg/kg/injection, schedule: Q01DX011 (ip), vehicle: carboxymethylcellulose (CMC)) was 24 % of control and 33 % of control and 45 % of control. The T/C (dose: 28.0 mg/kg/injection, schedule: Q01DX011 (ip), vehicle: carboxymethylcellulose (CMC)) was 61 % of control.

For `CC(=O)OCC1OC(n2cnc3c(=O)[nH]cnc32)CC1OC(C)=O` (stereo not drawn), the T/C under setting [2] is 75 % of control and 78 % of control; the T/C under setting [3] was 86 % of control.

With `S=P(N1CCCCCC1)(N1CC1)N1CC1`, the T/C is 92 % of control (dose: 1.0 mg/kg/injection, schedule: Q01DX011 (ip), vehicle: carboxymethylcellulose (CMC)); 58 % of control (dose: 1.75 mg/kg/injection, schedule: Q01DX011 (ip), vehicle: saline); 90 % of control (dose: 2.0 mg/kg/injection, schedule: Q01DX011 (ip), vehicle: carboxymethylcellulose (CMC)); 68 % of control (dose: 3.13 mg/kg/injection, schedule: Q01DX011 (ip), vehicle: saline); 70 % of control (dose: 3.5 mg/kg/injection, schedule: Q01DX011 (ip), vehicle: saline); 38 % of control (dose: 4.0 mg/kg/injection, schedule: Q01DX011 (ip), vehicle: carboxymethylcellulose (CMC)). Besides, the T/C is 26 % of control and 50 % of control (dose: 6.25 mg/kg/injection, schedule: Q01DX011 (ip), vehicle: saline); 36 % of control (dose: 6.75 mg/kg/injection, schedule: Q01DX011 (ip), vehicle: methylcellulose (MC)); 42 % of control (dose: 7.0 mg/kg/injection, schedule: Q01DX011 (ip), vehicle: saline); 96 % of control (dose: 7.5 mg/kg/injection, schedule: Q01DX011 (ip), vehicle: carboxymethylcellulose (CMC)); 23 % of control under setting [4]; 33 % of control (dose: 13.5 mg/kg/injection, schedule: Q01DX011 (ip), vehicle: methylcellulose (MC)). Further, the T/C (dose: 13.5 mg/kg/injection, schedule: Q01DX011 (ip), vehicle: saline) is 29 % of control; the T/C (dose: 14.0 mg/kg/injection, schedule: Q01DX011 (ip), vehicle: saline) is 5 % of control; the T/C (dose: 15.0 mg/kg/injection, schedule: Q01DX011 (ip), vehicle: carboxymethylcellulose (CMC)) is 43 % of control; the T/C (dose: 16.0 mg/kg/injection, schedule: Q01DX011 (ip), vehicle: carboxymethylcellulose (CMC)) was 6 % of control; the T/C (dose: 27.0 mg/kg/injection, schedule: Q01DX011 (ip), vehicle: saline) was 25 % of control; the T/C under setting [1] was 10 % of control. Also, the T/C (dose: 54.0 mg/kg/injection, schedule: Q01DX011 (ip), vehicle: saline) was 24 % of control.

Turning to `C#C[C@]1(O)CC[C@H]2[C@@H]3CCc4cc(O)ccc4[C@H]3CC[C@@]21C`, the T/C was 51 % of control and 53 % of control (dose: 85.0 mg/kg/injection, schedule: Q01DX011 (sc), vehicle: steriod suspending solution); 38 % of control and 43 % of control (dose: 170.0 mg/kg/injection, schedule: Q01DX011 (sc), vehicle: steriod suspending solution); 37 % of control and 43 % of control (dose: 340.0 mg/kg/injection, schedule: Q01DX011 (sc), vehicle: steriod suspending solution); 23 % of control (dose: 680.0 mg/kg/injection, schedule: Q01DX011 (sc), vehicle: steriod suspending solution).

`S=c1nc[nH]c2c1ncn2C1CCCCCC1`: the T/C runs as follows: (dose: 125.0 mg/kg/injection, schedule: Q01DX011 (ip), vehicle: carboxymethylcellulose (CMC)) 65 % of control; (dose: 250.0 mg/kg/injection, schedule: Q01DX011 (ip), vehicle: carboxymethylcellulose (CMC)) 88 % of control; (dose: 500.0 mg/kg/injection, schedule: Q01DX011 (ip), vehicle: carboxymethylcellulose (CMC)) 87 % of control.
